Test results published in patent US20230183187A1, “QUINAZOLINE COMPOUNDS AS INHIBITORS OF PREMATURE TERMINATION CODONS” (CENTRE NATIONAL DE LA RECHERCHE SCIENTIFIQUE, priority 2020, published 2023).

Experiments:
[1] = test system: p53 (endogenous nonsense mutation R213X) in HDQ-P1 cells; assay: Western blot of full-length p53 in HDQ-P1 cells; format: cell-based, human; conditions: HDQ-P1, 48 h
Protocol: HDQ-P1 cells (R213X) were treated with G418 ([…]), or the selected molecules (TLN68 50 μM, TLN1399 50 μM, TLN236 30 μM and TLN309 40 μM), for 48 h. Cells were harvested by treatment with trypsin—EDTA (Invitrogen), lysed in 350 mM NaCl, 50 mM Tris—HCl pH 7.5, 1% NP-40, and protease inhibitor cocktail (Roche) and disrupted by passage through a syringe.
Total proteins were quantified with Bradford reagent (Biorad) and extracts were denatured by incubation in Laemmli buffer for 5 minutes at 90° C. The inventors subjected 30 μg of total protein from HDQ-1 cells to SDS—PAGE in 4/10% Bis—Tris gels. Proteins were transferred onto nitrocellulose membranes, according to the manufacturer's instructions (Biorad). Membranes were saturated by overnight incubation in 5% skimmed milk powder in PBS, and incubated for 1 hour with the primary monoclonal antibody, DO-1 (N-terminal epitope mapping between amino acid residues 11 and 25 of p53; Santa Cruz Biotechnologies, 1/400) or a monoclonal antibody against mouse actin (Millipore, 1/2000). After three washes in PBS supplemented with 0.1% Tween, the membranes were incubated with the secondary antibody [horseradish peroxidase-conjugated anti-mouse IgG ( 1/2500)] for 45 minutes. The membranes were washed five times and chemiluminescence was detected with ECL Prime Western Blotting Detection Reagents (Amersham, GE Healthcare). The signal was quantified with ImageJ software.

[2] = test system: 40 more frequent nonsense mutations found in DMD gene; assay: Dual reporter readthrough on the 40 most frequent DMD nonsense mutations; format: cell-based; design: number of DMD nonsense sequences on which readthrough is promoted: dose or concentration left out as unconfirmed
Description: Complementary oligonucleotides corresponding to TP53 R213X nonsense mutations and 9 nucleotides on both sides are ligated into the pAC99 dual reporter plasmid, as previously described (Premature stop codons involved in muscular dystrophies show a broad spectrum of readthrough efficiencies in response to gentamicin treatment, Bidou et al, Gene Therapy 1 Apr. 2004, 11(7):619-627). This dual reporter is used to quantify stop-codon readthrough through the measurement of luciferase and beta-galactosidase (internal calibration) activities, as previously described (Stahl et al, Versatile vectors to study recoding: conservation of rules between yeast and mammalian cells. Nucleic Acids Res 1995; 23:1557-60). Readthrough levels for nonsense mutations were analysed in the presence or absence of tested molecules. Cells were seeded in a 6-well plate. […] The following day, they are rinsed with fresh medium, with or without readthrough inducers. […] Readthrough efficiency was estimated by calculating the ratio of luciferase activity to beta-galactosidase activity obtained with the test construct, with normalisation against an in-frame control construct. […]
Each nonsense mutation (+9 nucleotides in each side) has been cloned into the dual reporter previously used. Stop codon readthrough efficiency has been quantified either without drug or in presence of gentamicin or TLN68, in 6 independent experiments. […]

[3] = test system: +1 programmed ribosomal frameshifting from OAZ1 gene; assay: Frameshifting test, dual reporter; format: cell-based; conditions: treated vs untreated cells (FIG. 8)
Description: TLN468 has no impact on both −1 and +1 programmed ribosomal frameshifting (PRF). No significant difference is observed between treated and untreated cells (right and left bars respectively). TLN468 has been tested on −1 PRF from HIV-1 and +1 PRF from OAZ1 gene.

NIH3T3 cells = assay: WST1 tetrazolium viability assay, NIH3T3; format: cell-based, mouse; conditions: NIH3T3, 24 h, maximal dose used
Protocol: The inventors tested the effect of TLN68 on viability of NIH3T3, HDQ-P1 and HeLa cell lines by using a tetrazolium salt which is cleaved only by metabolically active cells. Cells were treated or not with a range of TLN68 doses during 24 h and viability was measured.

nonsense mutation R213X = assay: pAC99 dual reporter readthrough in HeLa cells, R213X; format: cell-based, human; conditions: 24 hours
Protocol: Different compounds of the invention have been tested for their ability to induce readthrough on the nonsense mutation W1268X or R213X in HeLa cells.
To this aim the inventors used the pAC99 dual reporter plasmid. This dual reporter is used to quantify stop-codon readthrough through the measurement of luciferase and beta-galactosidase (internal normalisation) activities. Readthrough levels for nonsense mutations were analysed in the presence or absence of tested molecules. Cells are seeded in a 6-well plate. The next day, cells are transfected with the reporter plasmid using the JetPei reagent (Invitrogen). The following day, they are rinsed with fresh medium, with or without readthrough inducers. Cells were harvested 24 hours later, with trypsin—EDTA (Invitrogen), lysed with Glo lysis buffer (Promega) and beta-galactosidase and luciferase activities were assayed as previously described. Readthrough efficiency was estimated by calculating the ratio of luciferase activity to beta-galactosidase activity obtained with the test construct, with normalisation against an in-frame control construct. At least five independent transfection experiments were performed for each assay.

Structure (SMILES): Cc1nc(NC(=N)N)nc2ccccc12 [TLN68]
- level of induction of full-length p53 compared with G418 ([1]; G418 10 and 20 mM): even higher to the one obtained in presence of G418
- production of the full-length p53 (western blot) ([1]; TLN68 50 μM, TLN236 30 μM, TLN309 40 μM): stimulate the production of the full-length p53
- readthrough compared with gentamicin on the DMD set of sequences ([2]; gentamicin 2.5 mM, same conditions): outperforms gentamicin
- number of DMD nonsense sequences on which readthrough is promoted ([2]; out of 40 tested, 6 independent experiments): 28
- impact on +1 programmed ribosomal frameshifting [3]: no impact
- viable cells (NIH3T3 cells): 80%
- Inducting factor of readthrough as compared to untreated cells (measured on nonsense mutation R213X) (nonsense mutation R213X): 14
